Assay results published in ChEMBL document CHEMBL1201862, “PubChem BioAssay data set” (2004).
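Briefly, cells in 96-well plates were exposed to five compound concentrations for 48 h, and endpoints were estimated by linear interpolation. At the GI50, growth is halved.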 The source made the active and inactive calls. No stated cut-off is given here; in the data, active = GI50 up to about 1.1 µM and inactive = higher.

Key:
Assay in all cases: inhibition of tumour cell growth, NCI panel, 48 h
SK-OV-3 = system: SK-OV-3
Malme-3M = system: Malme-3M
IGROV-1 = system: IGROV-1
CCRF-CEM = system: CCRF-CEM
HCT-116 = system: HCT-116
SF-268 = system: SF-268
SK-MEL-28 = system: SK-MEL-28
HT-29 = system: HT-29
HL-60 = system: HL-60
KM12 = system: KM12
SF-295 = system: SF-295
SW-620 = system: SW-620
SR = system: SR
MOLT-4 = system: MOLT-4
UACC-62 = system: UACC-62
OVCAR-3 = system: OVCAR-3
MCF7 = system: MCF7
NCI/ADR-RES = system: NCI/ADR-RES
MDA-N = system: MDA-N

Compound | GI50 (SK-OV-3) | GI50 (Malme-3M) | GI50 (IGROV-1) | GI50 (CCRF-CEM) | GI50 (HCT-116) | GI50 (SF-268) | GI50 (SK-MEL-28) | GI50 (HT-29) | GI50 (HL-60) | GI50 (KM12) | GI50 (SF-295) | GI50 (SW-620) | GI50 (SR) | GI50 (MOLT-4) | GI50 (UACC-62) | GI50 (OVCAR-3) | GI50 (MCF7) | GI50 (NCI/ADR-RES) | GI50 (MDA-N)
N#CC(NNC(=O)Cc1ccccc1)c1cccc(O)c1 (configuration not stated) | > 100 µM (inactive) | > 100 µM (inactive) | > 100 µM (inactive) | > 100 µM (inactive) | > 100 µM (inactive) | > 100 µM (inactive) | > 100 µM (inactive) | > 100 µM (inactive) | > 100 µM (inactive) | > 100 µM (inactive) | > 100 µM (inactive) | > 100 µM (inactive) | > 100 µM (inactive) | > 100 µM (inactive) | > 100 µM (inactive) | – | – | – | –
N#CC(N)(C(=O)CCC(=O)Nc1cccc(Cl)c1)c1ccc(Cl)cc1 (configuration not stated) | > 100 µM (inactive) | > 100 µM (inactive) | > 100 µM (inactive) | > 100 µM (inactive) | > 100 µM (inactive) | > 100 µM (inactive) | > 100 µM (inactive) | > 100 µM (inactive) | > 100 µM (inactive) | > 100 µM (inactive) | > 100 µM (inactive) | > 100 µM (inactive) | > 100 µM (inactive) | > 100 µM (inactive) | > 100 µM (inactive) | > 100 µM (inactive) | – | – | –
C[C@]12CCC3[C@@H](CCC45OC4C(=O)CC[C@]35C)C1Cc1cnn(-c3ccc(F)cc3)c1N2 (some centres not stated) | 58.1 µM (inactive) | > 100 µM (inactive) | – | 21.3 µM (inactive) | 15.3 µM (inactive) | 23.6 µM (inactive) | 26.6 µM (inactive) | 17.3 µM (inactive) | 17.6 µM (inactive) | 25.1 µM (inactive) | 39 µM (inactive) | 31.8 µM (inactive) | 27.2 µM (inactive) | 22.9 µM (inactive) | 19.7 µM (inactive) | – | – | – | –
COc1ccc(CCN2CCOCC2)cc1 | > 100 µM (inactive) | > 100 µM (inactive) | > 100 µM (inactive) | > 100 µM (inactive) | > 100 µM (inactive) | > 100 µM (inactive) | > 100 µM (inactive) | > 100 µM (inactive) | > 100 µM (inactive) | > 100 µM (inactive) | > 100 µM (inactive) | > 100 µM (inactive) | > 100 µM (inactive) | > 100 µM (inactive) | > 100 µM (inactive) | 41.8 µM (inactive) | > 100 µM (inactive) | > 100 µM (inactive) | > 100 µM (inactive)
CCc1cc(-c2nsc(=O)o2)c(S(=O)(=O)CC)s1 | > 100 µM (inactive) | – | 34 µM (inactive) | 32.6 µM (inactive) | 43.3 µM (inactive) | 86.9 µM (inactive) | 49.3 µM (inactive) | 84.9 µM (inactive) | 0.951 µM (active) | 38.4 µM (inactive) | > 100 µM (inactive) | 61 µM (inactive) | 38.3 µM (inactive) | > 10 µM (inactive) | – | > 100 µM (inactive) | 26.7 µM (inactive) | > 100 µM (inactive) | 75 µM (inactive)
COc1c(C(C)C)cc2c3c1OC(=O)[C@@]31CCCC(C)(C)C1CC2 (some centres not stated) | 23.8 µM (inactive) | 27.2 µM (inactive) | 23.1 µM (inactive) | 18.5 µM (inactive) | 9.2 µM (inactive) | 28.7 µM (inactive) | 27.4 µM (inactive) | 25.5 µM (inactive) | 14.2 µM (inactive) | – | 24.5 µM (inactive) | 26.4 µM (inactive) | 16.9 µM (inactive) | 25.1 µM (inactive) | 24.4 µM (inactive) | 20.5 µM (inactive) | – | – | –
O=C(Nc1ccc(Cl)cc1Cl)C(=O)C(C(=O)c1ccncc1)C1OC(=O)c2ccccc21 (configuration not stated) | > 100 µM (inactive) | > 100 µM (inactive) | > 100 µM (inactive) | > 100 µM (inactive) | > 100 µM (inactive) | > 100 µM (inactive) | > 100 µM (inactive) | > 100 µM (inactive) | > 100 µM (inactive) | > 100 µM (inactive) | > 100 µM (inactive) | > 100 µM (inactive) | > 100 µM (inactive) | > 100 µM (inactive) | > 100 µM (inactive) | > 100 µM (inactive) | – | – | –
CC(C)OCC(O)COc1cc(=O)oc2ccccc12 (configuration not stated) | > 100 µM (inactive) | > 100 µM (inactive) | > 100 µM (inactive) | > 100 µM (inactive) | > 100 µM (inactive) | > 100 µM (inactive) | > 100 µM (inactive) | > 100 µM (inactive) | > 100 µM (inactive) | > 100 µM (inactive) | > 100 µM (inactive) | > 100 µM (inactive) | > 100 µM (inactive) | > 100 µM (inactive) | > 100 µM (inactive) | > 100 µM (inactive) | > 100 µM (inactive) | > 100 µM (inactive) | > 100 µM (inactive)
COc1cc2c(c(OC)c1OC)C(=O)[C@@H](O)[C@H]2NC(N)=O | – | > 100 µM (inactive) | > 100 µM (inactive) | > 100 µM (inactive) | > 100 µM (inactive) | > 100 µM (inactive) | > 100 µM (inactive) | > 100 µM (inactive) | > 100 µM (inactive) | > 100 µM (inactive) | > 100 µM (inactive) | > 100 µM (inactive) | – | > 100 µM (inactive) | 83.4 µM (inactive) | > 100 µM (inactive) | > 100 µM (inactive) | > 100 µM (inactive) | > 100 µM (inactive)
O=S1(=O)NN=C(NCc2ccc(Cl)c(Cl)c2)c2ccccc21 | – | > 100 µM (inactive) | > 100 µM (inactive) | 9.16 µM (inactive) | > 100 µM (inactive) | > 100 µM (inactive) | – | 53.8 µM (inactive) | 26.5 µM (inactive) | > 100 µM (inactive) | > 100 µM (inactive) | 91.2 µM (inactive) | 15.6 µM (inactive) | 15.1 µM (inactive) | 6.56 µM (inactive) | > 100 µM (inactive) | – | – | –
CCCN(CCC)CCc1cc(C(C)=O)n(S(=O)(=O)c2ccc(C)cc2)c1 | > 100 µM (inactive) | > 100 µM (inactive) | > 100 µM (inactive) | > 100 µM (inactive) | > 100 µM (inactive) | > 100 µM (inactive) | > 100 µM (inactive) | 45.6 µM (inactive) | – | > 100 µM (inactive) | > 100 µM (inactive) | > 100 µM (inactive) | > 100 µM (inactive) | > 100 µM (inactive) | > 100 µM (inactive) | > 100 µM (inactive) | – | – | –
O=C(O)C1C2CCC(C2)C1c1ccccc1 (configuration not stated) | > 100 µM (inactive) | > 100 µM (inactive) | – | > 100 µM (inactive) | > 100 µM (inactive) | > 100 µM (inactive) | > 100 µM (inactive) | > 100 µM (inactive) | > 100 µM (inactive) | > 100 µM (inactive) | > 100 µM (inactive) | > 100 µM (inactive) | > 100 µM (inactive) | > 100 µM (inactive) | > 100 µM (inactive) | > 100 µM (inactive) | > 100 µM (inactive) | > 100 µM (inactive) | > 100 µM (inactive)
COc1ccccc1/N=C(\N)N/N=C/c1c[nH]c2ccccc12 | 15.6 µM (inactive) | 2.58 µM (inactive) | 11 µM (inactive) | 5.93 µM (inactive) | 6.81 µM (inactive) | 14.2 µM (inactive) | 3.57 µM (inactive) | 4.01 µM (inactive) | 7.29 µM (inactive) | 14.9 µM (inactive) | 8.97 µM (inactive) | 2.72 µM (inactive) | 5.01 µM (inactive) | 3.13 µM (inactive) | 11.5 µM (inactive) | 12.2 µM (inactive) | – | – | –
CCCCCCC(=O)OC[n+]1ccc2c(C)c3[nH]c4ccc(OC)cc4c3c(C)c2c1 | 0.585 µM (active) | 1.01 µM (active) | 0.268 µM (active) | 0.0706 µM (active) | 0.054 µM (active) | 0.154 µM (active) | 1.29 µM (inactive) | 0.0664 µM (active) | 0.245 µM (active) | 0.186 µM (active) | 0.277 µM (active) | 0.0628 µM (active) | 0.0486 µM (active) | 0.0378 µM (active) | 0.953 µM (active) | 1.57 µM (inactive) | 0.214 µM (active) | 0.2 µM (active) | 0.324 µM (active)
CC(C)(C)c1cc2ccc(C(N)=O)cc2c(=O)[nH]1 | > 100 µM (inactive) | > 100 µM (inactive) | > 100 µM (inactive) | > 100 µM (inactive) | 69.7 µM (inactive) | > 100 µM (inactive) | > 100 µM (inactive) | > 100 µM (inactive) | 79.8 µM (inactive) | 59.3 µM (inactive) | > 100 µM (inactive) | > 100 µM (inactive) | > 100 µM (inactive) | > 100 µM (inactive) | > 100 µM (inactive) | > 100 µM (inactive) | – | – | –
COC(=O)C(C(=O)C(=O)Nc1cccc(OC)c1)c1cnc2ccccc2n1 (configuration not stated) | > 100 µM (inactive) | > 100 µM (inactive) | > 100 µM (inactive) | > 100 µM (inactive) | 29.3 µM (inactive) | > 100 µM (inactive) | > 100 µM (inactive) | > 100 µM (inactive) | > 100 µM (inactive) | > 100 µM (inactive) | > 100 µM (inactive) | > 100 µM (inactive) | > 100 µM (inactive) | > 100 µM (inactive) | > 100 µM (inactive) | – | – | – | –
CCCCCCCCCCCCN(O)C(=O)c1ccccc1 | 43.1 µM (inactive) | 17.5 µM (inactive) | 37.8 µM (inactive) | 3.82 µM (inactive) | 42 µM (inactive) | 15.1 µM (inactive) | 36.8 µM (inactive) | 39.4 µM (inactive) | 19.1 µM (inactive) | 38 µM (inactive) | 29.4 µM (inactive) | 34 µM (inactive) | 8.26 µM (inactive) | 6.44 µM (inactive) | 19.7 µM (inactive) | > 100 µM (inactive) | – | – | –
